Measured values: ChEMBL document CHEMBL5046290, “Design, Synthesis, and Preclinical Profiling of GSK3739936 (BMS-986180), an Allosteric Inhibitor of HIV-1 Integrase with Broad-Spectrum Activity toward 124/125 Polymorphs” (J Med Chem, 2022)
pEC50, pIC50: −log10 of the molar value.

Key:
[1] = Permeability of the compound at pH 7.4 by PAMPA assay; assay type: ADME; conditions: read-out: permeability
[2] = Metabolic stability in rat liver microsome assessed half life at 0.5 uM by LC-MS/MS analysis; assay type: ADME; conditions: liver microsomes
[3] = Metabolic stability in human liver microsome assessed half life at 0.5 uM by LC-MS/MS analysis; assay type: ADME; conditions: liver microsomes
[4] = tested on: Human immunodeficiency virus 1; experiment: Antiviral activity against recombinant HIV1 NLRep-Rluc harbouring polymorphic AA infected in human MT-2 cells assessed as inhibition of virus growth in presence of fetal bovine serum by measuring luciferase activity after 5 days; assay type: functional, organism-based; conditions: Human immunodeficiency virus 1, NLRep, MT2, 120 h
[5] = tested on: Human immunodeficiency virus 1; experiment: Antiviral activity against recombinant HIV1 NLRep-Rluc harbouring polymorphic AT infected in human MT-2 cells assessed as inhibition of virus growth in presence of fetal bovine serum by measuring luciferase activity after 5 days; assay type: functional, organism-based; conditions: Human immunodeficiency virus 1, NLRep, MT2, 120 h
[6] = tested on: Human immunodeficiency virus 1; experiment: Antiviral activity against recombinant HIV1 NLRep-Rluc harbouring polymorphic NA infected in human MT-2 cells assessed as inhibition of virus growth in presence of fetal bovine serum by measuring luciferase activity after 5 days; assay type: functional, organism-based; conditions: Human immunodeficiency virus 1, NLRep, MT2, 120 h
[7] = tested on: Human immunodeficiency virus 1; experiment: Antiviral activity against recombinant HIV1 NLRep-Rluc harbouring polymorphic TA infected in human MT-2 cells assessed as inhibition of virus growth in presence of fetal bovine serum by measuring luciferase activity after 5 days; assay type: functional, organism-based; conditions: Human immunodeficiency virus 1, NLRep, MT2, 120 h
[8] = Plasma protein binding in rat; assay type: ADME, cell-free; conditions: read-out: PPB (converted)
[9] = Plasma protein binding in monkey; assay type: ADME, cell-free, Macaca mulatta; conditions: rhesus monkey, read-out: PPB (converted)
[10] = Stability in pH 1 for 2 days at 50 degC; assay type: physicochemical; conditions: buffer, pH 1, 48 h; time 2 day
[11] = Permeability of the compound at pH 5.5 by PAMPA assay; assay type: ADME; conditions: read-out: permeability
Cytochrome P450 2C8 = target: T1, Cytochrome P450 2C8 (Homo sapiens, UniProt P10632); experiment: Inhibition of human CYP2C8; assay type: ADME
T1 sequence (P10632 whole entry): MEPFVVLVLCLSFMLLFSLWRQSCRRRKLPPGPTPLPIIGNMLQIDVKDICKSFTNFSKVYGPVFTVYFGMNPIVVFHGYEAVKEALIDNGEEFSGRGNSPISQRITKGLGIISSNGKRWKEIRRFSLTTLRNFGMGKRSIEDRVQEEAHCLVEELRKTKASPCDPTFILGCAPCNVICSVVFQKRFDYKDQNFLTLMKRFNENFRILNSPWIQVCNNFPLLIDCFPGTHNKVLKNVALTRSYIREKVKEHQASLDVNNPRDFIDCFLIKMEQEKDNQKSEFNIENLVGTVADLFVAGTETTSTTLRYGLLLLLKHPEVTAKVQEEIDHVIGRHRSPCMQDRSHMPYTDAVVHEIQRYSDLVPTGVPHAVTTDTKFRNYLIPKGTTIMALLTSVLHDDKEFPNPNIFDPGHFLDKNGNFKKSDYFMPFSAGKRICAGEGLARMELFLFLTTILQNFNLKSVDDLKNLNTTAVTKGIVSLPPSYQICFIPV

Cytochrome P450 2C19 = Cytochrome P450 2C19 (Homo sapiens, UniProt P33261); experiment: Inhibition of human CYP2C19; assay type: ADME
Cytochrome P450 2C19, sequence (P33261 whole entry): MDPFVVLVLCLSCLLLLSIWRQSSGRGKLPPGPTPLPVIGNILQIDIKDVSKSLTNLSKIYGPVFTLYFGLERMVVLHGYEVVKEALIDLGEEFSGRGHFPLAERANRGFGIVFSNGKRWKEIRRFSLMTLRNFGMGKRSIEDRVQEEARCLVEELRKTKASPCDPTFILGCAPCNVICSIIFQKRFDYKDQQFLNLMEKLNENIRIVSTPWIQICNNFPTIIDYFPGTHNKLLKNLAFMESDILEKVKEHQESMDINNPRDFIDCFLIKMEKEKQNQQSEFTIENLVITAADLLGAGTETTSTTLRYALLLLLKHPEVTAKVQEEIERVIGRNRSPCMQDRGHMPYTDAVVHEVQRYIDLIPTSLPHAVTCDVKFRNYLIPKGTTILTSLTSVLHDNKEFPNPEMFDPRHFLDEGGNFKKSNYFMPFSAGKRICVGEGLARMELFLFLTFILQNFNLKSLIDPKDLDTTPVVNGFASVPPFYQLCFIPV

Cytochrome P450 3A4 = Cytochrome P450 3A4 (Homo sapiens, UniProt P08684); experiment: Inhibition of human CYP3A4; assay type: ADME
Cytochrome P450 3A4, sequence (P08684 whole entry): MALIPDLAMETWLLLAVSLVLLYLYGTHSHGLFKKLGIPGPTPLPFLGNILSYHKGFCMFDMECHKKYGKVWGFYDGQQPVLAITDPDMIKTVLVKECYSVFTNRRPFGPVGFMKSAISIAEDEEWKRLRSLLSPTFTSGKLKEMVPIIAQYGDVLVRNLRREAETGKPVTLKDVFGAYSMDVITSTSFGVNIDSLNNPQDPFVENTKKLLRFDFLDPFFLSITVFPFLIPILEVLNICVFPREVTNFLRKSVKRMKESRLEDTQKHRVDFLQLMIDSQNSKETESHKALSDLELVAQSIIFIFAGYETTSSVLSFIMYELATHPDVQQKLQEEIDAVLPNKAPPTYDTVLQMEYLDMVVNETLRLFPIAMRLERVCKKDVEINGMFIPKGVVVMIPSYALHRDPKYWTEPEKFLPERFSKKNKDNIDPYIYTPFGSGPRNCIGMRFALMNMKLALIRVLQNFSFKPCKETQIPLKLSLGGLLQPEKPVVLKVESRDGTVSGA

[12] = Clearance in CD-1 mouse at 1 mg/kg, iv by LC-MS/MS analysis; assay type: ADME, organism-based; conditions: in vivo
CYP [13] = experiment: Half life in dog assessed as CYP mediated metabolism in presence of […] by phase I metabolic oxidation assay; assay type: ADME, Canis lupus familiaris
CYP [14] = experiment: Half life in monkey assessed as CYP mediated metabolism in presence of […] by phase I metabolic oxidation assay; assay type: ADME, Macaca mulatta; conditions: rhesus monkey
UGT [15] = experiment: Metabolic stability assessed as rat UGT-mediated metabolism by measuring half life by phase II UGT conjugation assay; assay type: ADME
UGT [16] = experiment: Metabolic stability assessed as monkey UGT-mediated metabolism by measuring half life by phase II UGT conjugation assay; assay type: ADME, Macaca mulatta; conditions: rhesus monkey
UGT [17] = target: UGT (Homo sapiens, UniProt O60656+O75310+O75795+P06133+P0DTE4+P0DTE5+P16662+P19224+P22309+P22310+P35503+P35504+P36537+P54855+Q6UWM9+Q9BY64+Q9HAW7+Q9HAW8+Q9HAW9); experiment: Metabolic stability assessed as human UGT-mediated metabolism by measuring half life by phase II UGT conjugation assay; assay type: ADME, protein assay
[18] = Elimination half life in CD-1 mouse at 1 mg/kg, iv by LC-MS/MS analysis; assay type: ADME, organism-based; conditions: in vivo, read-out: beta t1/2 (converted)
[19] = Elimination half life in Sprague-Dawley rat at 1 mg/kg, iv by LC-MS/MS analysis; assay type: ADME, organism-based; conditions: in vivo, read-out: beta t1/2 (converted)
[20] = Elimination half life in Cynomolgus monkey at 1 mg/kg, iv by LC-MS/MS analysis; assay type: ADME, organism-based, Macaca fascicularis; conditions: in vivo, read-out: beta t1/2 (converted)
[21] = Volume of distribution at steady state in Cynomolgus monkey at 1 mg/kg, iv by LC-MS/MS analysis; assay type: ADME, organism-based, Macaca fascicularis; conditions: in vivo, read-out: Vdss
[22] = Volume of distribution at steady state in Beagle dog at 1 mg/kg, iv by LC-MS/MS analysis; assay type: ADME, organism-based, Canis lupus familiaris; conditions: in vivo, read-out: Vdss
[23] = Cmax in CD-1 mouse at 5 mg/kg, po by LC-MS/MS analysis; assay type: ADME, organism-based; set-up: route oral, dose 5 mg/kg; conditions: in vivo
[24] = Cmax in Beagle dog at 2 mg/kg, po by LC-MS/MS analysis; assay type: ADME, organism-based, Canis lupus familiaris; set-up: route oral, dose 2 mg/kg; conditions: in vivo
[25] = Tmax in CD-1 mouse at 5 mg/kg, po by LC-MS/MS analysis; assay type: ADME, organism-based; conditions: in vivo
[26] = Tmax in Sprague-Dawley rat at 5 mg/kg, po by LC-MS/MS analysis; assay type: ADME, organism-based; conditions: in vivo
[27] = Tmax in Beagle dog at 2 mg/kg, po by LC-MS/MS analysis; assay type: ADME, organism-based, Canis lupus familiaris; conditions: in vivo
[28] = AUC in CD-1 mouse at 5 mg/kg, po by LC-MS/MS analysis; assay type: ADME, organism-based; set-up: dose 5 mg/kg; conditions: in vivo
[29] = Oral bioavailability in CD-1 mouse at 5 mg/kg by LC-MS/MS analysis; assay type: ADME, organism-based; conditions: in vivo
[30] = Oral bioavailability in Sprague-Dawley rat at 5 mg/kg by LC-MS/MS analysis; assay type: ADME, organism-based; conditions: in vivo
[31] = Toxicity in dog assessed as fecal change at upto 300 mg/kg, po administered as single dose; assay type: organism-based, Canis lupus familiaris; conditions: in vivo
L-type calcium channel = L-type calcium channel (Homo sapiens, UniProt O60840+Q01668+Q13698+Q13936); experiment: Inhibition of calcium channel, Type L (unknown origin) at 10 uM; assay type: toxicity
[32] = target: Voltage-gated inwardly rectifying potassium channel KCNH2 (Homo sapiens, UniProt Q12809); experiment: Inhibition of hERG; assay type: toxicity
Voltage-gated inwardly rectifying potassium channel KCNH2, sequence (Q12809 whole entry): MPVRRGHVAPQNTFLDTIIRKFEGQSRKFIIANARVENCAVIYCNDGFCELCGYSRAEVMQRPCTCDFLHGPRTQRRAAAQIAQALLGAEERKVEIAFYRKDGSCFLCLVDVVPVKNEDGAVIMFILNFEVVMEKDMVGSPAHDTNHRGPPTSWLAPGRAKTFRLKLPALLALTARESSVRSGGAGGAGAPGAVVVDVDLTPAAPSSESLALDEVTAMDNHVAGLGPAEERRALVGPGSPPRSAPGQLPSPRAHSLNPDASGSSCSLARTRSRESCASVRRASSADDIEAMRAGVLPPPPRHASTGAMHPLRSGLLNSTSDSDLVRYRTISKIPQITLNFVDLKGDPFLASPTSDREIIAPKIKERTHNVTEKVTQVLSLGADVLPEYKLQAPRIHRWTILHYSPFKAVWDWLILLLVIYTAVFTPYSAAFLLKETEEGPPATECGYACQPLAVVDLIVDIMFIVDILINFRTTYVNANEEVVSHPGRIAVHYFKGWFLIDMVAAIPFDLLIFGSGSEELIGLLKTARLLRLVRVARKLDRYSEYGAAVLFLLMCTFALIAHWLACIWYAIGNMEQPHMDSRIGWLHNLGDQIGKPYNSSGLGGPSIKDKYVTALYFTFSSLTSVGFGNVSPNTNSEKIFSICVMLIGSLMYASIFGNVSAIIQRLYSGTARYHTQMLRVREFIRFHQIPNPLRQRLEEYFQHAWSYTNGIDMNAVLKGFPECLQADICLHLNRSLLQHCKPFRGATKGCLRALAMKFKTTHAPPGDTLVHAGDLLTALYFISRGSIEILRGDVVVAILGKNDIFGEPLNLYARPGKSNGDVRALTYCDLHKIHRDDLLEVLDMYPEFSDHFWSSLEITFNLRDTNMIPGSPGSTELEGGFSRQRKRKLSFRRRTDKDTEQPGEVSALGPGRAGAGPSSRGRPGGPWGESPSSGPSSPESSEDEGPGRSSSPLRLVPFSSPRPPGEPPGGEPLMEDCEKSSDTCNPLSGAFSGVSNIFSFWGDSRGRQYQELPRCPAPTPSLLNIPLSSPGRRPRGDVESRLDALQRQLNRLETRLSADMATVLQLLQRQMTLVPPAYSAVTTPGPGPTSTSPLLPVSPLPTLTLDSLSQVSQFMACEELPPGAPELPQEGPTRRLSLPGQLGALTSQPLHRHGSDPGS

[33] = Toxicity in rat assessed as maximum tolerated dose; conditions: in vivo
[34] = Toxicity in rat assessed as vacuolation of kidney at 500 mg/kg/day; assay type: organism-based; conditions: in vivo
[35] = Toxicity in rat assessed as lipidosis at 500 mg/kg/day; assay type: organism-based; conditions: in vivo
[36] = Toxicity in rat assessed as change in parathyroid gland at 500 mg/kg/day; assay type: organism-based; conditions: in vivo
[37] = Toxicity in rat assessed as histological changes in bone marrow at 500 mg/kg/day; assay type: organism-based; conditions: in vivo
[38] = Cardiotoxicity in dog heart assessed as change in electrocardiographic parameter upto 128 uM of plasma concentration; assay type: toxicity, Canis lupus familiaris

SMILES: Cc1nc(C)c([C@H](OC(C)(C)C)C(=O)O)c(N2CCC(C)(C)CC2)c1-c1ccc(OCCc2ccc(F)cc2)cc1
- Papp [1]: 50.5 ×10⁻⁶ cm/s
- half-life at 0.5 µM [2]: > 120 min
- half-life at 0.5 µM [3]: 85 min
- pEC50 [4]: 8.49
- pEC50 [5]: 8.29
- pEC50 [6]: 8.42
- pEC50 [7]: 8.55
- fraction unbound [8]: 0.19
- fraction unbound [9]: 0.21
- Stability [10]: Unstable
- Papp [11]: 89.6 ×10⁻⁶ cm/s
- pIC50 (Cytochrome P450 2C8): ≤ 4.61
- pIC50 (Cytochrome P450 2C19): ≤ 4.61
- pIC50 (Cytochrome P450 3A4): ≤ 4.61
- clearance [12]: 5.4 mL/min/kg
- half-life (CYP [13]): > 120 min
- half-life (CYP [14]): 59 min
- half-life (UGT [15]): ≥ 120 min
- half-life (UGT [16]): ≥ 120 min
- half-life (UGT [17]): ≥ 120 min
- half-life [18]: 378 min
- half-life [19]: 258 min
- half-life [20]: 144 min
- Vd [21]: 1.5 L/kg
- Vd [22]: 0.7 L/kg
- Cmax [23]: 2360 nM
- Cmax [24]: 2960 nM
- Tmax [25]: 5 h
- Tmax [26]: 2.7 h
- Tmax [27]: 2 h
- AUC [28]: 24.5 µM·h
- bioavailability [29]: 89%
- bioavailability [30]: 52%
- Activity [31]: Toxic
- inhibition at 10 µM (L-type calcium channel): 96%
- pIC50 [32]: 6.17
- MTD [33]: 50 mg/kg/day
- Activity [34]: Toxic
- Activity [35]: Toxic
- Activity [36]: Toxic
- Activity [37]: Toxic
- Activity [38]: Non-Toxic
